This note sets out measurements from patent US9650395B2, “Antibacterial compounds and methods for use” (PTC Therapeutics, Inc., priority 2011, dated 2017).

SMILES strings stand for the structures. Values after ≈ are worked out from the molar mass of the structure shown. Bounds are passed on as bounds.

The subject of experiment [1] is control Gram-negative E. coli 25922 strain. Kind of experiment: Antibacterial activity, microbroth dilution MIC, E. coli 25922. Type of experiment: cell-based, Escherichia coli. The following applies: E. coli 25922, microbroth dilution; for MIC: Escherichia coli, read-out: MIC, 25922.
Experiment [2] concerns Klebsiella pneumoniae (K. pneumoniae) 35657. In words: Antibacterial activity, MIC, K. pneumoniae 35657. Type of experiment: cell-based. Conditions: for MIC: Klebsiella pneumoniae.
The subject of experiment [3] is Gram-positive Staphylococcus aureus (S. aureus) 29213. In words: Antibacterial activity, microbroth dilution MIC, S. aureus 29213. Type of experiment: cell-based. The following applies: S. aureus 29213, microbroth dilution; for MIC: Staphylococcus aureus, read-out: MIC, 29213. A general note: Dilution methods test growth across graded concentrations, often in twofold steps.

For experiment [4], the system named is quinolone resistant E. coli LZ3111. In words: Antibacterial activity, MIC, quinolone resistant E. coli LZ3111. Format: cell-based, Escherichia coli. The following applies: for MIC: Escherichia coli, read-out: MIC, LZ3111. An excerpt: (§1) The antibacterial activity from a microbroth dilution method may be presented as the minimum inhibitory concentration (MIC in […]). The MIC value is the lowest concentration of a drug which prevents macroscopically visible bacterial growth under test conditions.
Mutations in these regions are known to confer a high level resistance to the quinolone class of antibiotics.

For experiment [5], the system named is resistant K. pneumoniae MXX1232 (MDR clinical isolate). In words: Antibacterial activity, MIC, resistant K. pneumoniae MXX1232. Type of experiment: cell-based, Klebsiella pneumoniae. Conditions: Klebsiella pneumoniae; resistant K. pneumoniae MMX1232, MDR clinical isolate; read-out: MIC MMX1232.
In experiment [6] the test system is resistant A. baumannii MXX2240 (MDR clinical isolate). Kind of experiment: Antibacterial activity, MIC, resistant A. baumannii MXX2240. Format: cell-based, Acinetobacter baumannii. Conditions: resistant A. baumannii MMX2240, MDR clinical isolate; for MIC: Acinetobacter baumannii, read-out: MIC MMX2240.
Experiment [7] has as its system Acinetobacter baumannii (A. baumannii) BAA747. In words: Antibacterial activity, MIC, A. baumannii BAA747. Type of experiment: cell-based. Conditions: A. baumannii BAA747; for MIC: Acinetobacter baumannii, read-out: MIC BAA747.
Experiment [8] has as its system Pseudomonas aeruginosa (P. aeruginosa) 27853. In words: Antibacterial activity, MIC, P. aeruginosa 27853. Type of experiment: cell-based. Conditions: P. aeruginosa 27853; for MIC: Pseudomonas aeruginosa, read-out: MIC 27853.
Description: as §1
Antibacterial activity of test compounds against the Gram-negative bacterium Pseudomonas aeruginosa (P. aeruginosa) 27853 is shown in Table 5.

In experiment [9] the test system is super sensitive Gram-negative Escherichia coli (E. coli) BAS849. In words: Antibacterial activity, microbroth dilution MIC, E. coli BAS849. The following applies: E. coli BAS849, microbroth dilution; for MIC: Escherichia coli, read-out: MIC, BAS849. Type of experiment: cell-based.
The subject of experiment [10] is E. coli ELZ4251 (MDR clinical isolate). In words: Antibacterial activity, MIC, MDR E. coli ELZ4251. Type of experiment: cell-based, Escherichia coli. The following applies: E. coli ELZ4251, MDR clinical isolate.
Experiment [11] concerns Haemophilus influenzae (H. influenzae) 49247. Kind of experiment: Antibacterial activity, MIC, H. influenzae 49247. Type of experiment: cell-based. Conditions: H. influenzae 49247. In short, it runs like this: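 A microbroth dilution method gave the minimum inhibitory concentration for each compound against H. influenzae 49247, a Gram-negative bacterium. MIC means the smallest concentration of drug at which no macroscopically visible bacterial growth appears under the conditions of the test.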

Experiment [12] relates to Neisseria meningitidis (N. meningitidis) 13090. Kind of experiment: Antibacterial activity, MIC, N. meningitidis 13090. Conditions: N. meningitidis 13090. Format: cell-based.
In experiment [13] the test system is Moraxella catarrhalis (M. catarrhalis) 25238. Kind of experiment: Antibacterial activity, MIC, M. catarrhalis 25238. Format: cell-based. The following applies: M. catarrhalis 25238.
Experiment [14] has as its system E. coli ELZ4000 (MDR clinical isolate). In words: Antibacterial activity, MIC, MDR E. coli ELZ4000. Format: cell-based, Escherichia coli. Conditions: E. coli ELZ4000, MDR clinical isolate.

As to `CCc1cc(C(=O)O)c(=O)[nH]c1-c1ccc(N2CCC(c3ccncc3)C2)cc1` (centres unmarked) [Cpd 226, 5-ethyl-2-oxo-6-{4-[3-(pyridin-4-yl)pyrrolidin-1-yl]phenyl}-1,2-dihydropyridine-3-carboxylic acid], the MIC was 1 to 3.5 µg/mL (≈ 2.57 to 8.99 µM) in experiment [1]; 3.5 to 12.5 µg/mL (≈ 8.99 to 32.1 µM) in experiment [2]; 3.5 to 12.5 µg/mL (≈ 8.99 to 32.1 µM) in experiment [3]; 12.5 to 150 µg/mL (≈ 32.1 to 385 µM) in experiment [4]; 12.5 to 150 µg/mL (≈ 32.1 to 385 µM) in experiment [5]; 12.5 to 150 µg/mL (≈ 32.1 to 385 µM) in experiment [6]. The MIC in experiment [7] is 1 to 3.5 µg/mL (≈ 2.57 to 8.99 µM); in experiment [8], 12.5 to 150 µg/mL (≈ 32.1 to 385 µM); in experiment [9] it was below 1 µg/mL.

Turning to `CCc1cc(C(=O)O)c(=O)[nH]c1-c1ccc(N2CCC(c3ccccn3)C2)cc1` (centres unmarked) [Cpd 227, 5-ethyl-2-oxo-6-{4-[3-(pyridin-2-yl)pyrrolidin-1-yl]phenyl}-1,2-dihydropyridine-3-carboxylic acid], the MIC in experiment [1] is 1 to 3.5 µg/mL (≈ 2.57 to 8.99 µM); in experiment [2], 3.5 to 12.5 µg/mL (≈ 8.99 to 32.1 µM); in [3], 1 to 3.5 µg/mL (≈ 2.57 to 8.99 µM); in experiment [4], 12.5 to 150 µg/mL (≈ 32.1 to 385 µM); in [5] it was 12.5 to 150 µg/mL (≈ 32.1 to 385 µM); in experiment [6], 12.5 to 150 µg/mL (≈ 32.1 to 385 µM). Also, the MIC in experiment [7] is 1 to 3.5 µg/mL (≈ 2.57 to 8.99 µM); in experiment [8], 3.5 to 12.5 µg/mL (≈ 8.99 to 32.1 µM); in experiment [9], below 1 µg/mL.

As for `CCc1cc(C(=O)O)c(=O)[nH]c1-c1ccc(N2CCC(O)(CC)C2)cc1` (centres unmarked) [Cpd 232, 5-ethyl-6-[4-(3-ethyl-3-hydroxypyrrolidin-1-yl)phenyl]-2-oxo-1,2-dihydropyridine-3-carboxylic acid], the MIC in [1] is 1 to 3.5 µg/mL (≈ 2.81 to 9.82 µM); in [2], 1 to 3.5 µg/mL (≈ 2.81 to 9.82 µM); in experiment [3], 3.5 to 12.5 µg/mL (≈ 9.82 to 35.1 µM); in experiment [4] it was 12.5 to 150 µg/mL (≈ 35.1 to 421 µM); in experiment [5] it was 12.5 to 150 µg/mL (≈ 35.1 to 421 µM); in experiment [6], 12.5 to 150 µg/mL (≈ 35.1 to 421 µM). Moreover, the MIC in experiment [7] is 1 to 3.5 µg/mL (≈ 2.81 to 9.82 µM); in experiment [8] it was 12.5 to 150 µg/mL (≈ 35.1 to 421 µM); in [9], below 1 µg/mL.

Turning to `CN[C@@H]1CCC[C@@H]2CN(c3ccc(-c4[nH]c(=O)c(C(=O)O)c(O)c4C)cc3)C[C@@H]21.Cl` [Cpd 260, 4-hydroxy-5-methyl-6-{4-[(3aR,4R,7aS)-4-(methylamino)octahydro-2H-isoiridol-2-yl]phenyl}-2-oxo-1,2-dihydropyridine-3-carboxylic acid hydrochloride], the “MIC, 25922” value in [1] is “** (an MIC value between >3.5 μg/mL and ≦12.5 μg/mL is indicated by two stars (**))”. Moreover, the “MIC ELZ4251” value in experiment [10] was “*** (an MIC value between >1.0 μg/mL and ≦3.5 μg/mL is indicated by three stars (***))”. In addition, the “MIC 49247” value in [11] is “* (an MIC value between >12.5 μg/mL and ≦150 μg/mL is indicated by a single star (*))”. The “MIC 35657” value in [2] is “** (an MIC value between >3.5 μg/mL and ≦12.5 μg/mL is indicated by two stars (**))”. In addition, the “MIC, 29213” value in experiment [3] was “*** (an MIC value between >1.0 μg/mL and ≦3.5 μg/mL is indicated by three stars (***))”. The “MIC, LZ3111” value in experiment [4] (quinolone resistant E. coli LZ3111) is listed as “**** (an MIC value of ≦1.0 μg/mL is indicated by four stars (****))”. Besides, in [12], the “MIC 13090” value is “*** (an MIC value between >1.0 μg/mL and ≦3.5 μg/mL is indicated by three stars (***))”. Also, in experiment [7], the “MIC BAA747” value is “* (an MIC value between >12.5 μg/mL and ≦150 μg/mL is indicated by a single star (*))”. Also, the “MIC 27853” value in experiment [8] is “* (an MIC value between >12.5 μg/mL and ≦150 μg/mL is indicated by a single star (*))”. Moreover, the “MIC 25238” value in [13] was “** (an MIC value between >3.5 μg/mL and ≦12.5 μg/mL is indicated by two stars (**))”. Besides, the “MIC, BAS849” value in experiment [9] is “** (an MIC value between >3.5 μg/mL and ≦12.5 μg/mL is indicated by two stars (**))”. Further, in [14], the “MIC ELZ4000” value was “** (an MIC value between >3.5 μg/mL and ≦12.5 μg/mL is indicated by two stars (**))”.

In the case of `CCc1c(-c2ccc(N3C[C@@H]4[C@@H](N)[C@@H]4C3)cc2)[nH]c(=O)c(C(=O)O)c1O` [Cpd 285, 6-{4-[(1R,5S,6s)-6-amino-3-azabicyclo[3.1.0]hex-3-yl]phenyl}-5-ethyl-4-hydroxy-2-oxo-1,2-dihydropyridine-3-carboxylic acid], the “MIC ELZ4251” value in experiment [10] was “** (an MIC value between >3.5 μg/mL and ≦12.5 μg/mL is indicated by two stars (**))”. Besides, the MIC was below 1 µg/mL in experiment [11] (Haemophilus influenzae, read-out: MIC 49247); below 1 µg/mL in experiment [12] (Neisseria meningitidis, read-out: MIC 13090); 1 to 3.5 µg/mL (≈ 2.81 to 9.85 µM) in experiment [13] (Moraxella catarrhalis, read-out: MIC 25238); 12.5 to 150 µg/mL (≈ 35.2 to 422 µM) in experiment [14] (Escherichia coli, read-out: MIC ELZ4000). Besides, the “MIC 35657” value in experiment [2] is “*** (an MIC value between >1.0 μg/mL and ≦3.5 μg/mL is indicated by three stars (***))”. Besides, in [6], the “MIC MMX2240” value was “* (an MIC value between >12.5 μg/mL and ≦150 μg/mL is indicated by a single star (*))”. Moreover, the “MIC 27853” value in [8] was “** (an MIC value between >3.5 μg/mL and ≦12.5 μg/mL is indicated by two stars (**))”.
